The values below are quoted from earlier work in US20070196481A1, “Sustained-release tablet composition” (priority 2002, published 2007).

Structures can show the parent of a compound that is named as a salt.

With `CCCNC1CCc2nc(N)sc2C1` (centres unmarked) [pramipexole dihydrochloride], the solubility in water result is “about 200 mg/ml”.
For `CCOc1ccccc1OC(c1ccccc1)C1CNCCO1` (centres unmarked) [reboxetine mesylate], the solubility in water result is “about 250 mg/ml”.
